In ChEMBL document CHEMBL6153028, “Understanding the synergistic sensitization of natural products and antibiotics: An effective strategy to combat MRSA” (2025):

How the values were obtained:
Format in all cases: functional
Staphylococcus aureus [1] = assay: Synergistic antimicrobial activity against methicillin resistant Staphylococcus aureus 43300 assessed as fractional inhibitory concentration index incubated for 24 hrs in presence of norfloxacin by checkerboard assay
Staphylococcus aureus [2] = assay: Synergistic antimicrobial activity against methicillin resistant Staphylococcus aureus assessed as fractional inhibitory concentration index incubated for 24 hrs in presence of Oxacillin by checkerboard assay
Staphylococcus aureus [3] = assay: Synergistic antimicrobial activity against methicillin-resistant Staphylococcus aureus assessed as fractional inhibitory concentration index in presence of gentamicin by checkerboard assay
Staphylococcus aureus [4] = assay: Synergistic antibacterial activity against Staphylococcus aureus assessed as fractional inhibitory concentration index incubated for 24 hrs in presence of ampicillin by checkerboard assay
Staphylococcus aureus [5] = assay: Synergistic antimicrobial activity against methicillin resistant Staphylococcus aureus assessed as fractional inhibitory concentration index incubated for 24 hrs in presence of Norfloxacin by checkerboard assay
Staphylococcus aureus [6] = assay: Synergistic antimicrobial activity against methicillin resistant Staphylococcus aureus 43300 assessed as fractional inhibitory concentration index incubated for 24 hrs in presence of Vancomycin by checkerboard assay
Staphylococcus aureus [7] = assay: Synergistic antimicrobial activity against methicillin resistant Staphylococcus aureus 43300 assessed as fractional inhibitory concentration index incubated for 24 hrs in presence of Penicillin by checkerboard assay
Staphylococcus aureus [8] = assay: Synergistic antibacterial activity against methicillin-resistant Staphylococcus aureus 4806 assessed as fractional inhibitory concentration index incubated for 24 hrs in presence of ampicillin by checkerboard assay
Staphylococcus aureus [9] = assay: Synergistic antibacterial activity against methicillin-resistant Staphylococcus aureus assessed as fractional inhibitory concentration index incubated for 24 hrs in presence of ampicillin by checkerboard assay
Staphylococcus aureus [10] = assay: Synergistic antibacterial activity against methicillin-resistant Staphylococcus aureus assessed as fractional inhibitory concentration index incubated for 24 hrs in presence of cefazolin by checkerboard assay
Staphylococcus aureus [11] = assay: Synergistic antibacterial activity against methicillin resistant Staphylococcus aureus assessed as fractional inhibitory concentration index in presence of oxacillin incubated for 24 hrs by checkerboard assay
Staphylococcus aureus [12] = assay: Synergistic antibacterial activity against methicillin resistant Staphylococcus aureus assessed as fractional inhibitory concentration index in presence of kanamycin incubated for 24 hrs by checkerboard assay
Staphylococcus aureus [13] = assay: Synergistic antibacterial activity against methicillin-resistant Staphylococcus aureus assessed as fractional inhibitory concentration index incubated for 24 hrs in presence of fusidic acid by checkerboard assay
Staphylococcus aureus [14] = assay: Synergistic antibacterial activity against methicillin-resistant Staphylococcus aureus assessed as fractional inhibitory concentration index in presence of azithromycin
Staphylococcus aureus [15] = assay: Synergistic antibacterial activity against methicillin resistant Staphylococcus aureus assessed as fractional inhibitory concentration index incubated for 24 hrs in presence of levofloxacin by broth microdilution checkboard assay
Staphylococcus aureus [16] = assay: Synergistic antimicrobial activity against methicillin-resistant Staphylococcus aureus assessed as fractional inhibitory concentration index in presence of vancomycin by checkerboard assay
Staphylococcus aureus [17] = assay: Synergistic antimicrobial activity against methicillin-resistant Staphylococcus aureus assessed as fractional inhibitory concentration index in presence of gentamicin incubated for 24 hrs by checkerboard assay

SMILES: COc1cc2c(cc1O)CC[n+]1cc3c(OC)c(OC)ccc3cc1-2.[I-]
- fractional inhibitory concentration index (FICI) (Staphylococcus aureus [1]): 0.375

SMILES: COc1cc(C)c2c(c1C)OC(=O)c1c(C)c(Cl)c(O)c(C=O)c1O2
- fractional inhibitory concentration index (FICI) (Staphylococcus aureus [2]): 0.312
- fractional inhibitory concentration index (FICI) (Staphylococcus aureus [3]): 0.25

SMILES: COc1ccc2c(c1OC)C(CC(C)=O)N(C)c1c-2ccc2cc3c(cc12)OCO3 (stereo not drawn)
- fractional inhibitory concentration index (FICI) (Staphylococcus aureus [4]): 0.5

SMILES: CC1=CCC[C@@H]2[C@@](C)(C[C@H](O)C3=CC(=O)OC3O)[C@H](C)CC[C@@]12C (stereo partly drawn)
- fractional inhibitory concentration index (FICI) (Staphylococcus aureus [2]): 0.125

SMILES: C[C@@H]1O[C@@H](O[C@H]2[C@H](O[C@H]3CC[C@]4(C)[C@H]5CC=C6[C@@H]7CC(C)(C)CC[C@]7(C(=O)O)CC[C@@]6(C)[C@]5(C)CC[C@H]4C3(C)C)OC[C@H](O)[C@@H]2O)[C@H](O)[C@H](O)[C@H]1O
- fractional inhibitory concentration index (FICI) (Staphylococcus aureus [2]): 0.28

SMILES: O=C(OCC1O[C@H](OC(=O)c2cc(O)c(O)c(O)c2)[C@@H](O)[C@H](OC(=O)c2cc(O)c(O)c(O)c2)[C@H]1O)c1cc(O)c(O)c(O)c1 (stereo partly drawn)
- fractional inhibitory concentration index (FICI) (Staphylococcus aureus [2]): <0.5
- fractional inhibitory concentration index (FICI) (Staphylococcus aureus [5]): 0.31

SMILES: C[C@H]1C2CCC3[C@@H]4CC=C5CC(N(C)C)CC[C@]5(C)[C@H]4CC[C@@]32CN1C=O (stereo partly drawn)
- fractional inhibitory concentration index (FICI) (Staphylococcus aureus [6]): 0.502
- fractional inhibitory concentration index (FICI) (Staphylococcus aureus [7]): 0.116

SMILES: CC1=C(C)[C@H]2C3=CC[C@@H]4[C@@]5(C)CC[C@H](O)C(C)(C)[C@@H]5CC[C@@]4(C)[C@]3(C)CC[C@@]2(C(=O)O)CC1
- fractional inhibitory concentration index (FICI) (Staphylococcus aureus [4]): 0.5
- fractional inhibitory concentration index (FICI) (Staphylococcus aureus [2]): 0.38

SMILES: COc1c(O)ccc2c1C(CC(C)=O)N(C)c1c-2ccc2cc3c(cc12)OCO3 (stereo not drawn)
- fractional inhibitory concentration index (FICI) (Staphylococcus aureus [4]): 0.5
- fractional inhibitory concentration index (FICI) (Staphylococcus aureus [8]): 0.375
- fractional inhibitory concentration index (FICI) (Staphylococcus aureus [9]): 0.5

SMILES: COc1ccc2cc1Oc1ccc(cc1)C[C@H]1c3cc(c(OC)cc3CCN1C)Oc1c(O)c(OC)cc3c1[C@H]2N(C)CC3
- fractional inhibitory concentration index (FICI) (Staphylococcus aureus [10]): 0.25

SMILES: COc1ccc2cc1Oc1ccc(cc1)C[C@H]1c3cc(c(OC)cc3CCN1C)Oc1c(OC)c(OC)cc3c1[C@H]2N(C)CC3
- fractional inhibitory concentration index (FICI) (Staphylococcus aureus [10]): 0.188

SMILES: CNC1CC[C@@]2(C)C(=CC[C@H]3C4CCC5[C@H](C)NC[C@@]54CC[C@@H]32)C1 (stereo partly drawn)
- fractional inhibitory concentration index (FICI) (Staphylococcus aureus [6]): 0.116
- FIC (Staphylococcus aureus [7]): 0.116

SMILES: CC(C)=CCc1c(O)ccc(-c2oc3cc(O)cc(O)c3c(=O)c2CC=C(C)C)c1O
- fractional inhibitory concentration index (FICI) (Staphylococcus aureus [11]): 0.375
- fractional inhibitory concentration index (FICI) (Staphylococcus aureus [12]): 0.5

SMILES: C[C@H]1[C@H](OC(=O)CCC(=O)O)O[C@@H]2O[C@@]3(C)CC[C@H]4[C@H](C)CC[C@@H]1[C@@]24OO3 [ARTESUNATE]
- fractional inhibitory concentration index (FICI) (Staphylococcus aureus [2]): <0.5

SMILES: COc1ccc2cc3[n+](cc2c1OC)CCc1cc2c(cc1-3)OCO2.[Cl-] [BERBERINE CHLORIDE]
- fractional inhibitory concentration index (FICI) (Staphylococcus aureus [13]): 0.19
- fractional inhibitory concentration index (FICI) (Staphylococcus aureus [14]): 0.188
- fractional inhibitory concentration index (FICI) (Staphylococcus aureus [15]): 0.375

SMILES: C=C(C)[C@@H]1CC[C@]2(C=O)CC[C@]3(C)[C@H](CC[C@@H]4[C@@]5(C)CC[C@H](O)C(C)(C)[C@@H]5CC[C@]43C)[C@@H]12 [BETULINALDEHYDE]
- fractional inhibitory concentration index (FICI) (Staphylococcus aureus [16]): 0.5

SMILES: C=C(C)[C@@H]1CC[C@]2(C(=O)O)CC[C@]3(C)[C@H](CC[C@@H]4[C@@]5(C)CC[C@H](O)C(C)(C)[C@@H]5CC[C@]43C)[C@@H]12 [BETULINIC ACID]
- fractional inhibitory concentration index (FICI) (Staphylococcus aureus [16]): 0.5

SMILES: CC(C)c1cc2c(c(O)c1O)[C@@]1(C(=O)O)CCCC(C)(C)[C@@H]1CC2 [CARNOSIC ACID]
- fractional inhibitory concentration index (FICI) (Staphylococcus aureus [17]): 0.5
